Reference: patent US9139532B2, “Pyrazolyl guanidine F1F0-atpase inhibitors and therapeutic uses thereof” (Lycera Corporation, priority 2010, dated 2015)
Where two headings read alike, the source gives them in different places.

Experiments:
Ramos cells = experiment: Cytotoxicity in Ramos cells; type: cell-based; details: cytotoxicity in Ramos cells, read-out: Ramos Cell EC50
F1F0-ATPase = molecular target: T1, F1F0-ATPase (Bos taurus, UniProt P13621); experiment: Inhibition of F1F0-ATPase activity in synthesizing ATP; type: biochemical; details: inhibition of ATP synthesis by F1F0-ATPase; read-out: ATP Syn IC50
T1 construct: from tissue

IC50 (F1F0-ATPase) [µM] | SMILES | EC50 (Ramos cells) [µM] | EC50 (Ramos cells; Homo sapiens) [µM]
< 10 | O=C(/N=C(/Nc1cc(F)cc(Cl)c1)Nc1cc(-c2ccc(Cl)cc2)n[nH]1)c1ccc(C(F)(F)F)cc1 [Compound A-447] | > 10 | 
< 10 | O=C(N=C(Nc1cc(-c2cc(F)cc(F)c2)n[nH]1)Nc1ccc(F)cc1Cl)c1ccc(C(F)(F)F)cc1 [Compound A-294] |  | > 10
< 10 | CC(C)(C)N/C(=N/C(=O)c1cccc(Cl)c1)Nc1cc(-c2ccc(F)cc2)n[nH]1 [Compound A-451] | < 10 | 
< 10 | CC(C)(C)NC(=NC(=O)c1ccc(Cl)cc1)Nc1cc(-c2cc(F)cc(F)c2)n[nH]1 [Compound A-232] |  | < 10
< 10 | O=C(N=C(Nc1cc(F)cc(Cl)c1)Nc1cc(-c2cccc(Cl)c2)[nH]n1)c1ccc(Cl)c(F)c1 [Compound A-475] |  | > 10
< 10 | COCC(C)NC(=NC(=O)c1ccc(Cl)c(F)c1)Nc1cc(-c2cc(F)cc(F)c2)n[nH]1 (stereo not shown) [Compound A-273] | < 10 | 
> 10 | O=C(/N=C(\Nc1cc(-c2ccc(Cl)cc2)n[nH]1)NC1CCOCC1)c1ccc(Cl)c(F)c1 [Compound A-464] | > 10 | 
< 10 | O=C(N=C(Nc1cc(F)cc(Cl)c1)Nc1cc(-c2cccc(Cl)c2)[nH]n1)c1ccc(C(F)(F)F)cc1 [Compound A-446] |  | > 10
< 10 | CC(C)(C)NC(=NC(=O)c1ccc(Cl)c(F)c1)Nc1cc(-c2ccc(F)cc2)n[nH]1 [Compound A-152] |  | < 10
< 10 | CC(C)CCNC(=NC(=O)c1ccc(Cl)c(F)c1)Nc1cc(-c2cc(F)cc(F)c2)n[nH]1 [Compound A-349] |  | < 10
< 10 | Cc1ccccc1CN/C(=N/C(=O)c1cccc(F)c1)Nc1cc(-c2ccc(F)cc2)[nH]n1 [Compound A-399] | < 10 | 
< 10 | O=C(/N=C(/NCc1ccc(F)cc1Cl)Nc1cc(-c2ccc(Cl)cc2)n[nH]1)c1ccc(C(F)(F)F)cc1 [Compound A-445] | < 10 | 
< 10 | O=C(/N=C(/NCc1ccc(F)cc1Cl)Nc1cc(-c2cccc(Cl)c2)n[nH]1)c1ccc(F)c(F)c1 [Compound A-477] | > 10 | 
< 10 | CCOC[C@H](C)N/C(=N/C(=O)c1ccc(F)c(F)c1)Nc1cc(-c2cc(F)cc(Cl)c2)n[nH]1 [Compound A-247] |  | < 10
< 10 | N#Cc1cccc(C(=O)/N=C(\Nc2cc(-c3cc(F)cc(F)c3)n[nH]2)NC2CCC2)c1 [Compound A-314] | < 10 | 
< 10 | O=C(N=C(Nc1cc(-c2ccc(F)cc2)[nH]n1)NC1CCOC1)c1ccc(F)cc1 (stereo not shown) [Compound A-511] | < 10 | 
< 10 | O=C(N=C(NCc1ccc(F)cc1Cl)Nc1cc(-c2ccc(Cl)cc2)n[nH]1)c1ccc(Cl)c(F)c1 [Compound A-473] |  | > 10
< 10 | O=C(/N=C(/Nc1cc(F)cc(Cl)c1)Nc1cc(-c2ccc(F)cc2)n[nH]1)c1ccc(Cl)cc1 [Compound A-455] | < 10 | 
< 10 | COc1cccc(CN/C(=N/C(=O)c2ccc(F)c(C)c2)Nc2cc(-c3ccc(F)cc3)n[nH]2)c1 [Compound A-392] | < 10 | 
< 10 | O=C(/N=C(\Nc1cc(-c2ccc(F)cc2)n[nH]1)NC1CC1)c1cccc(F)c1 [Compound A-202] | > 10 | 
< 10 | O=C(/N=C(/NCc1ccc(Cl)c(F)c1)Nc1cc(C(F)(F)F)[nH]n1)c1ccc(Cl)cc1 [Compound A-32] |  | < 10
< 10 | CC(C)CN/C(=N/C(=O)c1ccc(F)c(F)c1)Nc1cc(-c2cc(F)cc(Cl)c2)n[nH]1 [Compound A-287] | < 10 | 
< 10 | CCOC(C)CN/C(=N/C(=O)c1ccc(F)c(F)c1)Nc1cc(-c2ccc(Cl)cc2)n[nH]1 (stereo not shown) [Compound A-214] | < 10 | 
< 10 | CCOC(C)CN/C(=N/C(=O)c1ccc(Cl)c(F)c1)Nc1cc(-c2ccc(F)cc2)n[nH]1 (stereo not shown) [Compound A-213] | < 10 | 
< 10 | CC1(CNC(=NC(=O)c2ccc(Cl)cc2)Nc2cc(-c3cc(F)cc(F)c3)n[nH]2)CCCO1 (stereo not shown) [Compound A-212] |  | < 10
< 10 | O=C(N=C(Nc1cc(-c2ccc(Cl)cc2)n[nH]1)NC1CCCC1)c1ccc(F)c(F)c1 [Compound A-378] |  | < 10

The remaining lines, values behind:

SMILES | IC50 (F1F0-ATPase) [µM] | EC50 (Ramos cells) [µM] | EC50 (Ramos cells; Homo sapiens) [µM]
COCC(C)NC(=NC(=O)c1ccc(OC)cc1F)Nc1cc(-c2ccc(F)cc2)n[nH]1 (stereo not shown) [Compound A-371] | > 10 | > 10 | 
O=C(/N=C(/NCc1cccc(C(F)(F)F)c1)Nc1cc(C(F)(F)F)n[nH]1)c1ccc(Cl)cc1 [Compound A-10] | < 10 |  | < 10
Cc1cc(N/C(=N\C(=O)c2ccc(F)c(F)c2)NCC(C)C)n[nH]1 [Compound A-191] | > 10 | > 10 | 
COCCCN/C(=N/C(=O)c1ccc(F)cc1)Nc1cc(C(F)(F)F)[nH]n1 [Compound A-409] | < 10 | > 10 | 
CC(C)CN/C(=N/C(=O)c1ccc(F)cc1)Nc1cc(-c2cc(F)cc(F)c2)n[nH]1 [Compound A-244] | < 10 | < 10 | 
COC[C@@H](C)NC(=NC(=O)c1ccc(F)cc1)Nc1cc(-c2ccc(F)cc2)n[nH]1 [Compound A-500] | < 10 |  | < 10
COc1ccc(CN/C(=N/C(=O)c2ccccc2)Nc2cc(C(F)(F)F)[nH]n2)cc1 [Compound A-425] | < 10 | < 10 | 
O=C(/N=C(\Nc1cc(C(F)(F)F)n[nH]1)NC1CCC1)c1ccc(Cl)cc1 [Compound A-108] | < 10 |  | < 10
CCOCC(C)NC(=NC(=O)c1ccc(F)c(F)c1)Nc1cc(-c2ccc(F)cc2)n[nH]1 (stereo not shown) [Compound A-263] | < 10 | < 10 | 
CC(C)(C)CN/C(=N/C(=O)c1ccc(F)c(F)c1)Nc1cc(C(F)F)[nH]n1 [Compound A-88] | < 10 |  | < 10
O=C(/N=C(\Nc1cc(C(F)(F)F)n[nH]1)NC1CCOCC1)c1ccc(Cl)c(F)c1 [Compound A-118] | < 10 |  | < 10
O=C(/N=C(/NCC(F)(F)F)Nc1cc(C(F)(F)F)n[nH]1)c1ccc(F)c(F)c1 [Compound A-11] | < 10 |  | < 10
CC(C)(C)N/C(=N/C(=O)c1ccc(C(F)(F)F)cc1)Nc1cc(-c2cccc(O)c2)n[nH]1 [Compound A-564, (Z)—N-((tert-Butylamino)((3-(3-hydroxyphenyl)-1H-pyrazol-5-yl)amino)methylene)-4-(trifluoromethyl)benzamide] | < 10 |  | < 10
COc1ccc(C(=O)/N=C(\Nc2cc(-c3ccc(F)cc3)n[nH]2)NC(C)(C)C)cn1 [Compound A-494] | < 10 | < 10 | 
CCC(C)CNC(=NC(=O)c1cccc(C#N)c1)Nc1cc(-c2ccc(Cl)cc2)n[nH]1 (stereo not shown) [Compound A-300] | < 10 |  | < 10
CCc1cc(C(=O)/N=C(\Nc2cc(-c3ccc(F)cc3)n[nH]2)NC(C)CC)ccn1 (stereo not shown) [Compound A-174] | < 10 |  | < 10
CC(C)C(C)N/C(=N/C(=O)c1cccc(C#N)c1)Nc1cc(-c2cc(F)cc(F)c2)n[nH]1 (stereo not shown) [Compound A-311] | < 10 | < 10 | 

SMILES | IC50 (F1F0-ATPase) [µM] | EC50 (Ramos cells) [µM] | EC50 (Ramos cells; Homo sapiens) [µM]
COc1ccc(C(=O)/N=C(\Nc2cc(-c3ccc(F)cc3)[nH]n2)NC(C)(C)C)cc1 [Compound A-539] | < 10 | < 10 | 
COCC(C)N/C(=N/C(=O)c1ccc(Cl)c(F)c1)Nc1cc(C(F)(F)F)n[nH]1 (stereo not shown) [Compound A-120] | < 10 |  | < 10
CC(C)(C)N/C(=N/C(=O)c1ccc(Cl)cc1)Nc1cc(C(F)F)[nH]n1 [Compound A-54] | < 10 |  | < 10
CCOCCCN/C(=N/C(=O)c1ccc(F)cc1)Nc1cc(-c2ccc(F)cc2)n[nH]1 [Compound A-280] | < 10 | > 10 | 
CCc1cc(C(=O)N=C(NCC(C)C)Nc2cc(-c3ccc(F)cc3)n[nH]2)ccn1 [Compound A-176] | < 10 |  | < 10
COCC(C)N/C(=N/C(=O)c1ccc(C(F)(F)F)cc1)Nc1cc(C(F)(F)F)n[nH]1 (stereo not shown) [Compound A-97] | < 10 |  | < 10
Cc1ccc(-c2cc(N/C(=N\C(=O)c3ccc(F)c(F)c3)NC(C)(C)C)[nH]n2)cc1F [Compound A-433] | < 10 | < 10 | 
COCC(C)NC(=NC(=O)c1ccc(F)c(F)c1)Nc1cc(-c2ccc(F)cc2)n[nH]1 (stereo not shown) [Compound A-274] | < 10 | < 10 | 
CC(C)(C)N/C(=N/C(=O)c1cccc(F)c1)Nc1cc(-c2ccc(F)cc2)n[nH]1 [Compound A-456] | < 10 | < 10 | 
Cc1ccc(-c2cc(N/C(=N\C(=O)c3ccc(F)c(F)c3)NCCCOC(C)C)[nH]n2)cc1F [Compound A-322] | < 10 | < 10 | 
COC[C@H](C)N/C(=N/C(=O)c1ccnc(OC)c1)Nc1cc(-c2ccc(F)cc2)n[nH]1 [Compound A-495] | < 10 | < 10 | 
O=C(/N=C(/Nc1cc(C(F)(F)F)n[nH]1)NC1CCCC1)c1ccc(F)c(F)c1 [Compound A-100] | < 10 |  | < 10
CCOCCCN/C(=N/C(=O)c1ccc(F)c(F)c1)Nc1cc(-c2ccc(Cl)cc2)n[nH]1 [Compound A-277] | < 10 | > 10 | 
CCOC[C@H](C)NC(=NC(=O)c1ccc(F)cc1)Nc1cc(-c2cc(F)cc(F)c2)n[nH]1 [Compound A-242] | < 10 |  | < 10
COCC(C)NC(=NC(=O)c1cccc(F)c1)Nc1cc(-c2ccc(F)cc2)n[nH]1 (stereo not shown) [Compound A-389] | < 10 | < 10 | 
CC1(C)Cn2nc(-c3ccc(F)cc3)cc2N/C(=N\C(=O)c2ccc(F)cc2)N1 [Compound A-568, (Z)-4-fluoro-N-(8-(4-fluorophenyl)-4,4-dimethyl-4,5-dihydro-1H-pyrazolo[1,5-a][1,3,5]triazepin-2(3H)-ylidene)benzamide] | < 10 |  | < 10
